Assay results published in US4607034A, “Quinazoline derivatives and pharmaceutical composition thereof” (priority 1979, dated 1986).
Where two headings read alike, the source gives them in different places.

Key:
[1] = system: spontaneously hypertensive rats (SHR); assay: Antihypertensive test in spontaneously hypertensive rats (mean blood pressure); type: in vivo, male); details: Rattus norvegicus
Procedure: (§1) Through a cannula chronically intubated into the abdominal aorta of a male SHR of 20 to 30 weeks after birth, mean blood pressure and heart rate were measured by means of an electronic recording system without anesthesia and restraint. Five rats were employed in one group of SHR. […] At 1, 3, 6 and 24 hours after administration of test samples, blood pressure and heart rate were determined.

[2] = in vivo; type: in vivo; details: mouse, in vivo; oral, mice, ten mice/group, observed one week
Procedure: (§2) Ten ICR-strain male mice weighing from 25 to 35 g. were used per one group, after fasting for 6 hours (water was freely taken in). Each test sample was suspended in a 1% tragacanth solution and administered orally at a concentration adjusted so as to give a volume of 40 ml/kg. After administration, feed was given and observation was continued for one week.

[3] = system: ICR-strain male mice; assay: in vivo; type: in vivo; details: oral, ten mice/group, one week
Procedure: as §2

[4] = system: spontaneously hypertensive rats (SHR); details: rat, in vivo, po
Procedure: as §1

[5] = system: α-adrenoceptor; details: known; cited from earlier work
[6] = SHR 3 mg/kg, oral administration, 1 hr, negative = decrease, read-out: Percent decrease in mean blood pressure after administration, 1 hr
[7] = SHR 3 mg/kg, oral administration, 3 hrs, negative = decrease, read-out: Percent decrease in mean blood pressure after administration, 3 hrs
[8] = SHR 3 mg/kg, oral administration, 6 hrs, negative = decrease, read-out: Percent decrease in mean blood pressure after administration, 6 hrs
[9] = SHR 3 mg/kg, oral administration, 24 hrs, negative = decrease, read-out: Percent decrease in mean blood pressure after administration, 24 hrs

SMILES	change in vivo at 3 mg/kg [1, 6] [%]	change in vivo at 3 mg/kg [1, 7] [%]	change in vivo at 3 mg/kg [1, 8] [%]	change in vivo at 3 mg/kg [1, 9] [%]	LD50 at 168 h [2] [mg/kg]	Number of dead mouse ([3]; 2,500 mg/kg)	Number of dead mouse ([3]; 5,000 mg/kg)	Number of dead mouse ([3]; 1,250 mg/kg)	change in heart rate [4]	change in vivo at 3 mg/kg ([1]; po, 24 h, read-out: Percent decrease in mean blood pressure after administration, 24 hrs) [%]	mechanism of antihypertensive activity [5]
COc1cc2nc(N3CCN(C(=O)NC4CCCCCC4)CC3)nc(N)c2cc1OC [Compound 5, 2-(4-cycloheptylcarbamoyl-piperazin-1-yl)-4-amino-6,7-dimethoxyquinazoline]	-18.4	-24.7	-19.2	-3.7							
COc1cc2nc(N3CCN(C(=O)Nc4ccccc4C)CC3)nc(N)c2cc1OC [Compound 13, 2-[4-(2-methylphenyl)carbamoyl-piperazin-1-yl]-4-amino-6,7-dimethoxyquinazoline]	-20.2	-17.9	-21.4	1.2	2500	5	10				
COc1cc2nc(N3CCN(C(=O)Nc4ccco4)CC3)nc(N)c2cc1OC [Compound 6, 2-[4-(furan-2-yl)carbamoyl-piperazin-1-yl]-4-amino-6,7-dimethoxyquinazoline]	-11.9	-14.5	-11.4	1							
COc1cc2nc(N3CCN(/C(S)=N/c4ccccc4)CC3)nc(N)c2cc1OC [Compound 35, 2-(4-phenylthiocarbamoyl-piperazin-1-yl)-4-amino-6,7-dimethoxyquinazoline]	-28	-20.9	-24.7	0.6	> 5000	0	0				
COc1cc2nc(N3CCN(C(=S)NC4CCCCC4)CC3)nc(N)c2cc1OC [Compound 9, 2-(4-cyclohexylthiocarbamoyl-piperazin-1-yl)-4-amino-6,7-dimethoxyquinazoline]	-19.3	-22.2	-20.5	-1.3							
COc1cc2nc(N3CCN(C(=O)Nc4cccc(F)c4)CC3)nc(N)c2cc1OC [Compound 26, 2-[4-(3-fluorophenyl)carbamoyl-piperazin-1-yl]-4-amino-6,7-dimethoxyquinazoline]	-21.5	-21.7	-24.3	0							
COc1cc2nc(N3CCN(C(=O)Nc4ccccc4F)CC3)nc(N)c2cc1OC [Compound 25, 2-[4-(2-fluorophenyl)carbamoyl-piperazin-1-yl]-4-amino-6,7-dimethoxyquinazoline]	-30.3	-22	-23.8	-7.3	1870	7	10	3			
COc1cc2nc(N3CCN(C(=O)Nc4ccccc4)CC3)nc(N)c2cc1OC [Compound 12, 2-(4-phenylcarbamoyl-piperazin-1-yl)-4-amino-6,7-dimethoxyquinazoline]	-13.3	-19.7	-17	3.7	> 5000	0	0				
COc1cccc(NC(=O)N2CCN(c3nc(N)c4cc(OC)c(OC)cc4n3)CC2)c1 [Compound 18, 2-[4-(3-methoxyphenyl)carbamoyl-piperazin-1-yl]-4-amino-6,7-dimethoxyquinazoline]	-5.9	-17.2	-15.9	4.6							
COc1cc2nc(N3CCN(C(=O)NC4CCCCC4)CC3)nc(N)c2cc1OC [Compound 4, 2-(4-cyclohexylcarbamoyl-piperazin-1-yl)-4-amino-6,7-dimethoxyquinazoline]	-26.8	-26.2	-25.1	-4.9	> 5000	0	0				
CCOc1ccc(NC(=O)N2CCN(c3nc(N)c4cc(OC)c(OC)cc4n3)CC2)cc1 [Compound 21, 2-[4-(4-ethoxyphenyl)carbamoyl-piperazin-1-yl]-4-amino-6,7-dimethoxyquinazoline]	-22.4	-24.5	-27.7	-6.4	> 5000	0	0				
COc1cc2nc(N3CCCN(C(=O)Nc4ccccc4)CC3)nc(N)c2cc1OC [Compound 37, 2-(4-phenylcarbamoyl-homopiperazin-1-yl)-4-amino-6,7-dimethoxyquinazoline]	-11.7	-12.8	-5	0							
COc1cc2nc(N3CCN(C(=O)NC4CCCC4)CC3)nc(N)c2cc1OC [Compound 3, 2-(4-cyclopentylcarbamoyl-piperazin-1-yl)-4-amino-6,7-dimethoxyquinazoline]	-27.1	-27	-27	-0.3	> 5000	0	0				
COc1cc2nc(N3CCN(C(=O)c4ccco4)CC3)nc(N)c2cc1OC [Prazosin, 2-[4-(2-furoyl)-piperazin-1-yl]-4-amino-6,7-dimethoxyquinazoline, reference compound]	-27.9	-17.3	-19						no significant change	-1.7	relaxation of peripheral arterioles as a consequence of α-adrenoceptor blockade
COc1cc2nc(N3CCN(C(=O)Nc4ccc(Cl)cc4C)CC3)nc(N)c2cc1OC [Compound 34, 2-[4-(2-methyl-4-chlorophenyl)carbamoyl-piperazin-1-yl]-4-amino-6,7-dimethoxyquinazoline]	-12.1	-19	-18.2	-1.2							
COc1cc2nc(N3CCN(C(=O)Nc4cccc(Cl)c4)CC3)nc(N)c2cc1OC [Compound 29, 2-[4-(3-chlorophenyl)carbamoyl-piperazin-1-yl]-4-amino-6,7-dimethoxyquinazoline]	-15.1	-18.5	-19.4	-4.9							
COc1cc2nc(N3CCN(C(=O)Nc4ccc(C)cc4)CC3)nc(N)c2cc1OC [Compound 15, 2-[4-(4-methylphenyl)carbamoyl-piperazin-1-yl]-4-amino-6,7-dimethoxyquinazoline]	-17.1	-18.5	-21.8	1.2							
